According to publication PMC7380166, “How to Study the Metabolism of New Psychoactive Substances for the Purpose of Toxicological Screenings—A Follow-Up Study Comparing Pooled Human Liver S9, HepaRG Cells, and Zebrafish Larvae” (Frontiers in Chemistry, 2020):
Where two headings read alike, the source gives them in different places.

Key:
[1] = system: zebrafish larvae; assay: Zebrafish larvae exposure, metabolite identification by LC-HRMS/MS; conditions: for Absolute peak area, Zebrafish larvae [100 µM]: 100 µM parent NPS in medium, larvae 4 dpf, larvae extract, one replicate of n = 3, n.d. = not detected; for Absolute peak area, Zebrafish larvae [100 µM] / Number of phase I metabolites detected, Zebrafish larvae / Number of phase II metabolites detected, Zebrafish larvae: 24 h; for Number of phase I metabolites detected, Zebrafish larvae / Number of phase II metabolites detected, Zebrafish larvae: 100 μM in medium; for Relative number of matches with the four most abundant signals in human plasma, Zebrafish larvae / Relative number of matches with the four most abundant signals in human urine, Zebrafish larvae: larvae exposed to 100 μM, human data from Wagmann et al., [2019b]
[2] = after subcutaneous administration of 1P-LSD to rats; ref Halberstadt et al., [2019]; cited from earlier work
[3] = ref Wagmann et al., cited from earlier work; for Detection in pHLS9 [25 µM]: n = 2, according to literature; for Number of phase I metabolites detected, pHLS9 [25 μM] / Number of phase II metabolites detected, pHLS9 [25 μM]: [2019b]
[4] = cited from earlier work
[5] = system: HepaRG cells; assay: Incubations with HepaRG cells, metabolite identification by LC-HRMS/MS; format: in vitro ADME, human; conditions: for Absolute peak area, HepaRG [25 μM]: 25 μM parent NPS; for Absolute peak area, HepaRG [25 μM] / Absolute peak area, HepaRG [250 μM] / Number of phase I metabolites detected, HepaRG [25 μM] / Number of phase II metabolites detected, HepaRG [25 μM] / Number of phase I metabolites detected, HepaRG [250 μM] / Number of phase II metabolites detected, HepaRG [250 μM]: 24 h; for Absolute peak area, HepaRG [25 μM] / Absolute peak area, HepaRG [250 μM]: cell culture medium, one replicate of n = 3, n.d. = not detected; for Absolute peak area, HepaRG [250 μM]: 250 μM parent NPS; for Relative number of matches with the four most abundant signals in human plasma, HepaRG [25 μM] / Relative number of matches with the four most abundant signals in human plasma, HepaRG [250 μM] / Relative number of matches with the four most abundant signals in human urine, HepaRG [25 μM] / Relative number of matches with the four most abundant signals in human urine, HepaRG [250 μM]: human data for ephylone and 4F-PHP from Wagmann et al., [2019b]
[6] = Incubations with pooled human liver S9 fraction (pHLS9), metabolite identification by LC-HRMS/MS; format: in vitro ADME; conditions: human data for ephylone and 4F-PHP from Wagmann et al., [2019b]
Procedure: According to published procedures (Richter et al., [2017b], [2019b]; Caspar et al., [2018b]; Wagmann et al., [2019b],[c]), the final incubation volume per reaction tube was 150 μl, with a final protein concentration of 2 mg/ml. The given concentrations represent final concentrations. A preincubation for 10 min at 37°C with UGT reaction mixture solution B (containing alamethicin, 25 μg/ml), MgCl2 (2.5 mM), NADP^+ (0.6 mM), isocitrate (2.5 mM), isocitrate dehydrogenase (0.8 U/ml), superoxide dismutase (100 U/ml), acetyl coenzyme A (0.1 mM), phosphate buffer (90 mM, pH 7.4), and pHLS9 (2 mg/ml) was done. Afterwards, UGT reaction mixture solution A (containing UDP glucuronic acid, 2.5 mM), PAPS (40 μM), SAM (1.2 mM), dithiothreitol (1 mM), and glutathione (10 mM) were added, as well as 25 μM 4F-MDMB-BINACA to start the reactions. The mixture was incubated for 360 min. Total amount of organic solvent in incubation mixtures was <2% (Chauret et al., [1998]). After 60 min, an aliquot of the reaction mixture (60 μl) was transferred in another reaction tube containing 20 μl of ice-cold acetonitrile to terminate the reactions. The remaining aliquot (90 μl) was incubated for an additional 300 min, and then the reactions were stopped by adding 30 μl of ice-cold acetonitrile. Thereafter, the reaction tubes were cooled at −20°C for 30 min prior to centrifugation at 18,407 × g for 2 min. The supernatants (50 μl) were transferred into autosampler vials, and 1 μl was injected onto the LC-HRMS/MS system. Control samples without pHLS9 and blank samples without substrate were prepared to confirm the absence of non-metabolically formed and interfering compounds, respectively. All incubations were performed in duplicate.
According to a previous study (Richter et al., [2019a]), a Thermo Fisher Scientific (TF, Dreieich, Germany) Dionex UltiMate 3000 Rapid Separation (RS) UHPLC system with a quaternary UltiMate 3000 RS pump and an UltiMate 3000 RS autosampler controlled by the TF Chromeleon software version 6.8 was used. The LC system was coupled to an Orbitrap-based TF Q-Exactive Plus equipped with a heated electrospray ionization II (HESI-II) source. Calibration was done prior to analysis with a Positive Cal Mix (Supelco, Bellefonte, PA, USA) at a flow rate of 3 μl/min using a syringe pump. The conditions of the LC system were as follows: TF Accucore PhenylHexyl column (100 × 2.1 mm, 2.6 μm particle size); gradient elution with 2 mM ammonium formate solution containing 0.1% (v/v) formic acid (eluent A) and 2 mM ammonium formate solution in acetonitrile/methanol (50:50, v/v) containing 0.1% (v/v) formic acid, and 1% (v/v) water (eluent B). […] The following gradient was used: 0–1.0 min hold 1% B, 1–10 min to 99% B, 10–11.5 min hold 99% B, 11.5–13.5 min hold 1% B. The HESI-II source conditions were as follows: ionization mode, positive; heater temperature, 320°C; ion transfer capillary temperature, 320°C; sheath gas, 60 arbitrary units (AU); auxiliary gas, 10 AU; spray voltage, 4.00 kV; and S-lens RF level, 50.0. Mass spectrometry experiments were performed using high-resolution (HR) full scan mode and a targeted MS^2 mode with an inclusion list for each NPS. The inclusion list contained m/z values of metabolites, which were likely to be formed for example hydroxy, oxo, carboxy, dealkyl, demethylenylated, and defluorinated metabolites (phase I) as well as sulfates and glucuronides (phase II) and combinations of them. Full scan settings were as follows: resolution, 35,000; automatic gain control (AGC) target, 3e6; maximum injection time (IT), 120 ms; scan ranges, 3,4-DMA-NBOMe m/z 100–700, ephylone m/z 200–600, 4F-MDMB-BINACA m/z 150–700, 4F-PHP m/z 200–600, and 1P-LSD m/z 250–700. The settings for the targeted MS^2 mode with the respective inclusion lists were as follows: resolution, 17,500; AGC target, 2e5; maximum IT, 250 ms; loop count, 5; isolation window, 1.0 m/z; stepped normalized collision energy (NCE), 17.5, 35, 52.5%; pick others, enabled. […]

[7] = system: monooxygenases; conditions: initial monooxygenases activity screenings described elsewhere; ref Caspar et al., [2018a]; Wagmann et al., [2019b],[c]; cited from earlier work
[8] = system: zebrafish larvae; assay: In vivo maximum-tolerated concentration (MTC) study in zebrafish larvae; design: species or system zebrafish (Danio rerio); conditions: for Survival rate / Survival rates for all tested concentrations / Malformations: larvae 4 dpf; for Survival rate: 24-h treatment, fifteen larvae; for Survival rates for all tested concentrations: 0.01 to 100 μM; for Survival rates for all tested concentrations / Malformations: 24 h; for Concentration considered non-toxic for zebrafish larvae (4 dpf): 24 h exposure via medium; for Malformations: up to 100 μM
Procedure: Internal protocols based on published standard methods (Westerfield, [2007]) were used to perform zebrafish husbandry and the maximum-tolerated concentration (MTC) testing was based on a previous study (Richter et al., [2019a]). Danieau's medium [17 mM NaCl, 2 mM KCl, 0.12 mM MgSO4, 1.8 mM Ca(NO3)2, 1.5 mM HEPES, pH 7.1–7.3, and 1.2 μM methylene blue] at 28°C was used to raise zebrafish larvae of the AB wild-type strain. For MTC testing, 96-well plates were used with 100 μl of medium and one larva per well. Drug exposition was started 4 dpf using 0, 0.01, 0.1, 1, 10, 50, or 100 μM final concentrations of 3,4-DMA-NBOMe, ephylone, 4F-MDMB-BINACA, 4F-PHP, or 1P-LSD, respectively. The drug exposure in the incubator at 28°C lasted 24 h. The final DMSO concentration was 1% (v/v) for all experiments. Monitoring of the larvae was done using a LEICA M205 FA stereo microscope (Leica Mikrosysteme Vertrieb GmbH, Wetzlar, Germany) to detect developmental defects and/or decreased survival rates. Fifteen larvae were used for each experiment.

Structure (SMILES)	Absolute peak area, Zebrafish larvae [100 µM] [1]	Absolute peak area, HepaRG [25 μM] [5]	Absolute peak area, HepaRG [250 μM] [5]	Relative number of matches with the four most abundant signals in human plasma, pHLS9 [25 μM] [6]	Relative number of matches with the four most abundant signals in human urine, pHLS9 [25 μM] [6]	Monooxygenases involved in metabolism [7]	Survival rate ([8]; 0.01 μM)	Survival rate ([8]; 0.1 μM)	Survival rate ([8]; 1 μM)	Survival rate ([8]; 10 μM)	Survival rate ([8]; 50 μM)	Survival rate ([8]; 100 μM)	Survival rates for all tested concentrations [8]	Concentration considered non-toxic for zebrafish larvae (4 dpf) [8]	Malformations [8]	Number of phase I metabolites detected, Zebrafish larvae [1]	Number of phase II metabolites detected, Zebrafish larvae [1]	Relative number of matches with the four most abundant signals in human plasma, Zebrafish larvae [1]	Relative number of matches with the four most abundant signals in human urine, Zebrafish larvae [1]	Number of phase I metabolites detected, pHLS9 [25 μM] [3]	also measured
CCN(CC)C(=O)[C@@H]1C=C2c3cccc4[nH]cc(c34)C[C@H]2N(C)C1 [ML7, LSD]	1.25E+09	8.59E+08	5.95E+09	–	–	–	–	–	–	–	–	–	–	–	–	–	–	–	–	–	Detection in rat plasma [2]: able to detect; Detection in pHLS9 [25 µM] ([3]; 1P-LSD and metabolites, 2019b): +; Detection in serum and urine samples of an intoxicated patient ([4]; after assumed consumption of a blotter containing 1P-LSD, ref Grumann et al., [2019]): able to find
CCCC(NCC)C(=O)c1ccc2c(c1)OCO2 (stereo not shown) [Ephylone, N-ethylnorpentylone]	3.57E+09	6.38E+08	3.94E+09	100%	100%	CYP1A2, CYP2B6, CYP2C19, and CYP3A4	100%	100%	100%	100%	100%	100%	100%	100 µM	no malformations	5	4	100%	100%	5 (Wagmann et al., [2019b])	Number of phase II metabolites detected, pHLS9 [25 μM] [3]: 8 (Wagmann et al., [2019b]); Detection in pHLS9 [25 µM] ([3]; ephylone and metabolites, 2019a): +; Signals with the highest abundance in human plasma and/or urine ([4]; human biosamples after intake of ephylone and 4F-PHP, ref Wagmann et al., [2019b]): highest ephylone-related signals; Number of phase I metabolites detected, HepaRG [25 μM] [5]: 2; Number of phase II metabolites detected, HepaRG [25 μM] [5]: 4; Number of phase I metabolites detected, HepaRG [250 μM] [5]: 4; Number of phase II metabolites detected, HepaRG [250 μM] [5]: 6; Relative number of matches with the four most abundant signals in human plasma, HepaRG [25 μM] [5]: 75%; Relative number of matches with the four most abundant signals in human plasma, HepaRG [250 μM] [5]: 100%; Relative number of matches with the four most abundant signals in human urine, HepaRG [25 μM] [5]: 75%; Relative number of matches with the four most abundant signals in human urine, HepaRG [250 μM] [5]: 100%
CCCCC(C(=O)c1ccc(F)cc1)N1CCCC1 (stereo not drawn) [Metabolite 4F-PHP, 4-fluoro-alpha-pyrrolidinohexiophenone]	4.36E+09	6.65E+08	5.45E+09	75%	75%	CYP1A2, CYP2B6, CYP2C19, and CYP3A4	100%	100%	100%	100%	100%	100%	100%	100 µM	no malformations	8	3	100%	75%	6 (Wagmann et al., [2019b])	Number of phase II metabolites detected, pHLS9 [25 μM] [3]: 2 (Wagmann et al., [2019b]); Detection in pHLS9 [25 µM] ([3]; 4F-PHP and metabolites, 2019a): +; Number of phase I metabolites detected, HepaRG [25 μM] [5]: 5; Number of phase II metabolites detected, HepaRG [25 μM] [5]: 0; Number of phase I metabolites detected, HepaRG [250 μM] [5]: 6; Number of phase II metabolites detected, HepaRG [250 μM] [5]: 1; Relative number of matches with the four most abundant signals in human plasma, HepaRG [25 μM] [5]: 50%; Relative number of matches with the four most abundant signals in human plasma, HepaRG [250 μM] [5]: 50%; Relative number of matches with the four most abundant signals in human urine, HepaRG [25 μM] [5]: 25%; Relative number of matches with the four most abundant signals in human urine, HepaRG [250 μM] [5]: 50%
